Assay results taken from the NIST ThermoML archive (doi:10.1021/je900974u).

Tests used:
[1] = molar heat capacity at constant pressure; conditions: 101.33 kPa, Liquid, Vacuum adiabatic calorimetry
[2] = for Triple point temperature: Crystal; for mass density: 101.33 kPa, Liquid, Pycnometric method
[3] = Molar enthalpy of transition or fusion; conditions: Crystal; Adiabatic calorimetry

CCOS(=O)(=O)[O-].CCn1cc[n+](C)c1 [1-ethyl-3-methylimidazolium ethyl sulfate]
[1]
Conditions	molar heat capacity at constant pressure [J/K/mol]
191.13 K	354.4
193.05 K	354.6
194.98 K	354.9
196.91 K	355.1
198.84 K	355.3
200.77 K	355.7
202.71 K	355.9
204.64 K	356.3
206.57 K	356.6
208.5 K	356.9
210.44 K	357.2
212.37 K	357.5
214.3 K	357.9
216.24 K	358.3
218.18 K	358.7
220.11 K	359.2
222.05 K	359.6
223.98 K	360.1
225.92 K	360.4
227.86 K	360.9
229.8 K	361.4
231.74 K	362.1
233.68 K	362.5
235.62 K	363
237.56 K	363.5
239.5 K	364
241.43 K	364.6
243.37 K	365.1
245.32 K	365.6
247.26 K	366.2
249.2 K	366.8
251.14 K	367.4
253.08 K	367.9
255.02 K	368.5
256.96 K	369.1
258.9 K	369.9
260.85 K	370.3
262.79 K	371
264.73 K	371.7
266.67 K	372.1
268.62 K	372.7
270.55 K	373.4
272.5 K	374.1
274.44 K	374.8
276.38 K	375.1
278.32 K	375.6
280.25 K	376.5
282.2 K	377
284.14 K	377.6
286.08 K	378.2
288.03 K	378.7
289.97 K	379.4
291.91 K	380.2
293.85 K	381
295.79 K	381.9
297.74 K	382.6
299.68 K	383.5
301.62 K	384.2
303.56 K	385
305.51 K	385.9
307.45 K	386.7
309.39 K	387.5
311.33 K	388.6
313.28 K	389.5
315.22 K	390.4
317.16 K	391.4
319.11 K	392.2
321.05 K	393.2
322.99 K	394
324.93 K	395
326.88 K	395.9
328.82 K	396.9
330.77 K	397.7
332.71 K	398.5
334.66 K	399.7
336.6 K	400.5
338.54 K	401.4
340.49 K	402.7
342.43 K	403.5
344.38 K	404.4
346.32 K	405.7
348.27 K	406.7
350.21 K	407.8
352.15 K	408.8
354.1 K	409.7
356.04 K	410.8
357.98 K	411.9
359.92 K	412.8
361.86 K	413.9
363.8 K	414.9
365.75 K	415.9
367.69 K	416.8

CCCCCCCC[n+]1ccn(C)c1.F[B-](F)(F)F [1-methyl-3-octylimidazolium tetrafluoroborate]
Conditions	Molar enthalpy of transition or fusion [kcal/mol]	Triple point temperature [K]
[2]	–	245.75
[3]	3.513	–

[1]
Conditions	molar heat capacity at constant pressure [J/K/mol]
195.88 K	466.3
197.4 K	465.8
198.93 K	465.5
200.46 K	464.9
202.1 K	464.6
203.86 K	464.1
205.61 K	463.8
207.37 K	463.5
209.14 K	463.2
210.91 K	463.2
212.69 K	463.2
214.47 K	463.2
216.25 K	463.5
218.04 K	463.5
218.59 K	463.5
219.83 K	463.8
220.61 K	463.8
221.62 K	464.1
222.57 K	464.1
223.42 K	464.4
224.52 K	464.6
225.22 K	464.6
226.48 K	464.9
227.02 K	464.9
228.43 K	465.5
228.83 K	465.5
230.39 K	466.1
230.63 K	466.3
232.35 K	466.3
234.3 K	466.6
236.26 K	467.5
238.22 K	468
240.18 K	468.6
242.14 K	469.4
244.1 K	470.3
246.06 K	470.8
247.53 K	471.7
248.02 K	471.7
249.36 K	472.5
249.99 K	472.5
251.18 K	473.1
251.95 K	473.4
253 K	473.7
253.91 K	474.2
254.83 K	474.5
255.87 K	475.1
256.65 K	475.4
257.83 K	476.2
258.48 K	476.2
260.3 K	477.3
262.13 K	478.2
263.95 K	479
265.78 K	480.1
267.6 K	481
269.43 K	482.1
271.26 K	483
273.08 K	483.8
274.91 K	484.6
276.74 K	486.1
278.57 K	486.9
280.39 K	488
282.22 K	488.9
284.05 K	490
285.87 K	490.8
287.7 K	492
289.53 K	493.1
291.35 K	494.2
293.18 K	495.1
295 K	496.2
296.83 K	497.3
298.65 K	498.2
300.48 K	499.3
302.36 K	500.4
304.29 K	501.6
306.22 K	502.7
308.16 K	503.8
310.09 K	504.9
312.02 K	505.8
313.95 K	507.2
315.89 K	508.3
317.82 K	509.4
319.75 K	510.6
321.68 K	512
323.62 K	513.1
325.55 K	514.2
327.48 K	515.1
329.41 K	516.5
331.34 K	517.9
333.27 K	519.3
335.19 K	520.4
337.12 K	521.8
339.05 K	523
340.97 K	524.4
342.9 K	525.5
344.82 K	526.6
346.75 K	528
348.68 K	529.5
350.6 K	530.9
352.53 K	532.3
354.45 K	533.4
356.38 K	534.8
358.3 K	535.9
360.22 K	537.3
362.14 K	539
364.06 K	539.9
365.98 K	541.3
367.89 K	542.7

CCC[n+]1ccn(C)c1.[Br-] [1-methyl-3-propylimidazolium bromide]
Conditions	mass density [kg/m3]	molar heat capacity at constant pressure [J/K/mol]
[1], 222.57 K	–	260
[1], 224.61 K	–	260.5
[1], 226.66 K	–	260.8
[1], 228.71 K	–	261.3
[1], 230.76 K	–	261.7
[1], 232.81 K	–	262.1
[1], 234.85 K	–	262.7
[1], 236.9 K	–	263.1
[1], 238.95 K	–	263.5
[1], 241 K	–	264
[1], 243.05 K	–	264.4
[1], 245.1 K	–	264.9
[1], 247.15 K	–	265.4
[1], 249.2 K	–	266
[1], 251.25 K	–	266.5
[1], 253.31 K	–	267.1
[1], 255.36 K	–	267.6
[1], 257.41 K	–	268.2
[1], 259.46 K	–	268.8
[1], 261.51 K	–	269.5
[1], 263.56 K	–	270
[1], 265.62 K	–	270.6
[1], 267.67 K	–	271.2
[1], 269.72 K	–	271.8
[1], 271.77 K	–	272.5
[1], 273.82 K	–	273.2
[1], 275.87 K	–	273.8
[1], 277.92 K	–	274.5
[1], 279.98 K	–	275.1
[1], 282.03 K	–	275.8
[1], 284.08 K	–	276.4
[1], 286.13 K	–	277
[1], 288.18 K	–	277.8
[1], 290.23 K	–	278.4
[1], 292.28 K	–	279.1
[1], 294.33 K	–	279.7
[1], 296.39 K	–	280.4
[1], 298.44 K	–	281
[1], 300.49 K	–	281.7
[1], 302.54 K	–	282.4
[1], 304.59 K	–	283
[1], 306.64 K	–	283.7
[1], 308.7 K	–	284.4
[1], 310.75 K	–	285
[1], 312.8 K	–	285.7
[1], 314.85 K	–	286.4
[1], 316.91 K	–	287.1
[1], 318.96 K	–	287.7
[1], 321.01 K	–	288.5
[1], 323.07 K	–	289.2
[1], 325.12 K	–	289.8
[1], 327.18 K	–	290.6
[1], 329.23 K	–	291.4
[1], 331.28 K	–	292.1
[1], 333.34 K	–	292.9
[1], 335.39 K	–	293.6
[1], 337.45 K	–	294.3
[1], 339.5 K	–	295.1
[1], 341.56 K	–	295.9
[1], 343.61 K	–	296.7
[1], 345.67 K	–	297.3
[1], 347.73 K	–	298.2
[1], 349.78 K	–	299.2
[1], 351.84 K	–	299.9
[1], 353.9 K	–	300.7
[1], 355.95 K	–	301.4
[1], 358.01 K	–	302.2
[1], 360.06 K	–	303.1
[1], 362.12 K	–	303.8
[1], 364.17 K	–	304.6
[1], 366.23 K	–	305.4
[1], 368.28 K	–	306.3
[2], 302.71 K	1355.9	–
[2], 307.7 K	1352.4	–
[2], 312.7 K	1348.9	–
[2], 317.71 K	1345.4	–
[2], 322.7 K	1341.9	–
[2], 327.7 K	1338.5	–
[2], 332.7 K	1335	–
[2], 337.69 K	1331.6	–
[2], 342.68 K	1328.2	–
[2], 347.68 K	1324.9	–
[2], 352.67 K	1321.6	–
[2], 357.67 K	1318.3	–

Conditions	Molar enthalpy of transition or fusion [kcal/mol]	Triple point temperature [K]
[2]	–	309.56
[3]	4.589	–
